Laboratory results from patent US8957049B2, “Inhibitors of fatty acid amide hydrolase” (Infinity Pharmaceuticals, Inc., priority 2008, dated 2015).

The compounds below were run against T1, human FAAH (Homo sapiens, UniProt O00519) (assay: Human FAAH biochemical inhibition assay (AMC arachidonoyl amide fluorescence)). Details: class given in each Example, read-out: Activity (Ki, inhibition of human FAAH).
T1 construct: host or cells: COS-7 cells, transient transfection (FuGENE 6); 13,000 g membrane fraction solubilised in 1% Triton X-100
T1 sequence (O00519 1-579): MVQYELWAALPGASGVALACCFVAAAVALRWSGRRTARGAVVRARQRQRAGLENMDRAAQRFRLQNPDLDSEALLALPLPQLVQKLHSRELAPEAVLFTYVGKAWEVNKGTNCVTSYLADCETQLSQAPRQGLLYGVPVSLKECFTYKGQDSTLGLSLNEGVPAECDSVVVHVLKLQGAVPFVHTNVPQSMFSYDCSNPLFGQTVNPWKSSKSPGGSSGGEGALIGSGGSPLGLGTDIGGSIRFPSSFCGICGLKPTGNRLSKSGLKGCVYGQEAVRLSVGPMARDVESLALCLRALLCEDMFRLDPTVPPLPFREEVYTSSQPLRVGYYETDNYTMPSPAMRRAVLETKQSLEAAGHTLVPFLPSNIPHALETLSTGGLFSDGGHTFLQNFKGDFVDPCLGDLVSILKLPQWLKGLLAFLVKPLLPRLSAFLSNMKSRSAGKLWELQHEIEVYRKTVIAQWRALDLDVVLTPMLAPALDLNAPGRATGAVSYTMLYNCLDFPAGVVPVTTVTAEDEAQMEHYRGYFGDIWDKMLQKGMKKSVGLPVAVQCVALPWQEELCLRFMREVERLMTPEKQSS
Outline: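 Human FAAH from solubilized membranes of transiently transfected COS-7 cells, 0.1 mg/mL in 50 mM Hepes pH 7.5, 1 mM EDTA, 0.2% Triton X-100, preincubated 30 min at room temperature with 3-fold serially diluted inhibitor. Hydrolysis of AMC arachidonoyl amide read by fluorescence (ex 355/em 460 nm). Data fitted to single-site competitive inhibition with Km fixed at 9 μM.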

SMILES | Ki [nM]
CC(C)(C)OC(=O)N1CCC(c2ccc(B(O)O)cc2)CC1 [Compound 233] | ≤ 10
CN(CCCc1ccc(B(O)O)cc1)C(=O)OC(C)(C)C [Compound 235] | ≤ 10
O=S(=O)(c1ccccc1)N1CCC(c2ccc(B(O)O)cc2)CC1 [Compound 236] | 10 to 100
CN(CCc1ccc(B(O)O)cc1)S(=O)(=O)c1ccccc1 [Compound 237] | ≤ 10
CN(CCCc1ccc(B(O)O)cc1)S(=O)(=O)c1ccccc1 [Compound 238] | ≤ 10
O=C(CCc1nnc(-c2ccc(B(O)O)cc2)o1)N1CCCCC1 [Compound 239] | 10 to 100
OB(O)c1ccc2nc(Cc3ccccc3)oc2c1 [Compound 241] | ≤ 10
OB(O)c1ccc2nc(CCc3ccccc3)oc2c1 [Compound 243] | ≤ 10
CCCc1nc2ccc(B(O)O)cc2o1 [Compound 244] | ≤ 10
CCCCCc1nc2ccc(B(O)O)cc2o1 [Compound 245] | ≤ 10
O=C1CC(c2nc3ccc(B(O)O)cc3o2)CN1Cc1ccccc1 (centres unmarked) [Compound 249] | 10 to 100
OB1c2cc3c(cc2C=NN1Cc1ccccc1)OCO3 [Compound 254] | > 1000
COc1ccc2c(c1)B(O)N(Cc1ccccc1)N=C2 [Compound 255] | > 1000
OB(O)c1ccccc1-c1nc2ncccc2o1 [Compound 259] | > 1000
CCCc1nnc(-c2cc(OC)ccc2B(O)O)o1 [Compound 260] | > 1000
CCCc1nnc(-c2c(F)cccc2B(O)O)o1 [Compound 262] | > 1000
OB(O)c1ccccc1-c1nnc(CCc2ccccc2)o1 [Compound 265] | > 1000
CCCc1nnc(-c2ccccc2B(O)O)s1 [Compound 266] | > 1000
Cn1cncc1-c1nnc(-c2cc(OCCc3ccccc3)ccc2B(O)O)o1 [Compound 268] | 10 to 100
CCCCOc1ccc(B(O)O)c(-c2nnc(CCC)o2)c1 [Compound 271] | 10 to 100
CCCc1noc(-c2cc(OCCc3ccccc3)ccc2B(O)O)n1 [Compound 273] | 10 to 100
CCCCOc1ccc2c(c1)C=NOB2O [Compound 277] | 100 to 1000

SMILES | Ki [nM]
OB(O)c1ccc2nc(CCc3ccccc3)sc2c1 [Compound 278] | ≤ 10
CN(C)c1nnc(-c2ccccc2B(O)O)o1 [Compound 282] | > 1000
CC(C)c1nnc(-c2ccccc2B(O)O)o1 [Compound 283] | > 1000
CC(C)Cc1nnc(-c2ccccc2B(O)O)o1 [Compound 284] | > 1000
OB(O)c1ccccc1-c1nnc(CCC(F)(F)F)o1 [Compound 285] | > 1000
O=C(/C=C/c1cc(OCCc2ccccc2)ccc1B(O)O)NCc1ccco1 [Compound 288] | > 1000
CC(C)c1cccc(-c2ccc(B(O)O)c(F)c2)c1 [Compound 289] | ≤ 10
CCCc1nnc(-c2cc(Oc3cccnc3)ccc2B(O)O)o1 [Compound 296] | 10 to 100
OB(O)c1ccc(Oc2cncc(F)c2)cc1 [Compound 297] | ≤ 10
OB(O)c1ccc(Oc2ccc(F)nc2)cc1F [Compound 298] | ≤ 10
CC(C)c1ccc(CN2CCC(Cc3nc4ccc(B(O)O)cc4o3)CC2)cc1 [Compound 301] | 10 to 100
CCCN1CCC(Cc2nc3ccc(B(O)O)cc3o2)CC1 [Compound 303] | 100 to 1000
O=S(=O)(c1ccccc1)N1CCC(Cc2nc3ccc(B(O)O)cc3o2)CC1 [Compound 305] | 10 to 100
O=C1c2ccc(B(O)O)cc2C(=O)N1Cc1ccccc1 [Compound 308] | ≤ 10
CN(CCc1ccc(B(O)O)c(F)c1)C(=O)OC(C)(C)C [Compound 311] | ≤ 10
CN(CCc1ccc(B(O)O)c(F)c1)S(=O)(=O)c1ccccc1 [Compound 312] | ≤ 10
OB(O)c1ccc2nn(CCc3ccccc3)cc2c1 [Compound 315] | ≤ 10
OB(O)c1ccc2nc(-c3ccccc3)c(Br)n2c1 [Compound 317] | ≤ 10
CC(C)(C)OC(=O)N1CCN(c2ccc(B(O)O)cc2)CC1 [Compound 318] | 10 to 100
O=C(c1ccccc1)c1ccc2cc(B(O)O)ccc2n1 [Compound 319] | ≤ 10
OB(O)c1ccc(-c2cn(Cc3ccccc3)nn2)cc1 [Example 117] | ≤ 10
OB(O)c1ccc(Cn2cc(-c3ccccc3)nn2)cc1 [Example 122] | 10 to 100

Continued, values first:

Ki [nM] | SMILES
≤ 10 | CN(CCc1ccc(B(O)O)cc1)C(=O)OC(C)(C)C [Compound 234]
≤ 10 | OB(O)c1ccc2oc(CCc3ccccc3)nc2c1 [Compound 242]
≤ 10 | OB(O)c1ccc2nc(CCCC(F)(F)F)oc2c1 [Compound 246]
10 to 100 | O=C(CCc1nc2ccc(B(O)O)cc2o1)N1CCCCC1 [Compound 247]
10 to 100 | O=C1CC(c2nc3ccc(B(O)O)cc3o2)CN1c1ccccc1 (centres unmarked) [Compound 248]
≤ 10 | OB(O)c1cc2oc(CCc3ccccc3)nc2cc1F [Compound 253]
> 1000 | OB1c2sccc2C=NN1Cc1ccccc1 [Compound 256]
> 1000 | OB1c2cscc2C=NN1Cc1ccccc1 [Compound 257]
> 1000 | OB1NN=Cc2cc(OCc3ccccc3)ccc21 [Compound 258]
> 1000 | CCCc1nnc(-c2cc(F)ccc2B(O)O)o1 [Compound 261]
> 1000 | O=C1CCCN1CCc1nnc(-c2ccccc2B(O)O)o1 [Compound 263]
> 1000 | OB(O)c1ccccc1-c1nnc(-c2ccco2)o1 [Compound 264]
≤ 10 | CCCc1nnc(-c2cc(OCCc3ccccc3)ccc2B(O)O)s1 [Compound 267]
100 to 1000 | Cc1nc(-c2nnc(-c3cc(OCCc4ccccc4)ccc3B(O)O)o2)cs1 [Compound 269]
10 to 100 | CCCCOc1ccc(B(O)O)c(-c2nnc(C)o2)c1 [Compound 272]
≤ 10 | CCCc1noc(-c2ccc(B(O)O)cc2)n1 [Compound 272]
10 to 100 | CCCc1cnc(-c2cc(OCCc3ccccc3)ccc2B(O)O)s1 [Compound 276]
100 to 1000 | OB(O)c1ccc(C2CCN(Cc3ccccc3)CC2)cc1 [Compound 279]
10 to 100 | CC(C)c1ccc(CN2CCC(c3ccc(B(O)O)cc3)CC2)cc1 [Compound 280]
> 1000 | CCCCCc1nnc(-c2ccccc2B(O)O)o1 [Compound 281]

Ki [nM] | SMILES
> 1000 | CCOc1nnc(-c2ccccc2B(O)O)o1 [Compound 286]
> 1000 | O=C(/C=C/c1cc(OCCc2ccccc2)ccc1B(O)O)NCc1cccnc1 [Compound 287]
≤ 10 | OB(O)c1ccc2oc(CCc3ccccc3)cc2c1 [Compound 291]
≤ 10 | OB(O)c1ccc2cc(CCc3ccccc3)oc2c1 [Compound 293]
≤ 10 | CC(C)(C)OC(=O)N1CCC(Cc2nc3ccc(B(O)O)cc3o2)CC1 [Compound 299]
10 to 100 | OB(O)c1ccc2nc(CC3CCN(Cc4ccccc4)CC3)oc2c1 [Compound 302]
> 1000 | CC(C)CN1CCC(Cc2nc3ccc(B(O)O)cc3o2)CC1 [Compound 304]
≤ 10 | O=C(CCc1ccccc1)N1CCC(Cc2nc3ccc(B(O)O)cc3o2)CC1 [Compound 306]
≤ 10 | CCCCCN1C(=O)c2ccc(B(O)O)cc2C1=O [Compound 307]
≤ 10 | O=C1c2ccc(B(O)O)cc2C(=O)N1CCc1ccccc1 [Compound 309]
≤ 10 | OB(O)c1ccc2cn(CCc3ccccc3)nc2c1 [Compound 314]
≤ 10 | OB(O)c1ccc2c(cnn2Cc2ccccc2)c1 [Compound 316]
100 to 1000 | O=C(CCB(O)O)NCCc1ccccc1 [Compound 321]
10 to 100 | O=C(CCB(O)O)N1CCN(C(=O)OCc2ccccc2)CC1 [Compound 322]
100 to 1000 | CC(C)(C)OC(=O)N1CCN(C(=O)CCB(O)O)CC1 [Compound 323]
100 to 1000 | O=C(CCc1ccc(B(O)O)cc1)NCc1ccccc1 [Compound 324]
100 to 1000 | OB(O)c1ccc(COc2ccc(B(O)O)cc2)cc1 [Compound 325]
≤ 10 | OB(O)c1ccc(COc2cccc(B(O)O)c2)cc1 [Compound 326]
100 to 1000 | O=C(CCCC1CCN(Cc2ccc(B(O)O)cc2)CC1)c1ncco1 [Compound 329]
